This note sets out measurements from patent US20230292776A1, “GAS PHASE TREATMENT OF PRODUCE” (priority 2022, published 2023).

The test system of assay [1] is Colletotrichum gloeosporioides (Cg). Briefly: Antifungal activity against Colletotrichum gloeosporioides (Cg) in wounded, infected avocados. The note with it: for reduction of the incidence of Cg mold compared to the untreated test group: vapor of 3 mL in a Petri dish; for incidence of Cg mold: day 5. The format is in vivo. Here is the method:
Example 7. The antifungal activity of AITC and DADS vapor against Colletotrichum gloeosporioides (Cg) was tested in avocados. All test pieces were wounded by removing the stem and infected by dispensing 1000 Cg spores suspended in 10 μL of water into the wound. The test groups consisted of avocados that were: untreated and uninfected; untreated and infected; treated by dipping in a solution of 0.1 g/L of prochloraz; exposed to the vapor of 3 mL of AITC disposed in a Petri dish; and exposed to the vapor of 3 mL of DADS disposed in a Petri dish. FIG. 9 quantifies the infection results. AITC vapor reduced the incidence of Cg mold by 97% compared to the untreated test group and 70% compared to the prochloraz treated test group. DADS vapor reduced the incidence of Cg mold by 60% compared to the untreated test group.
Example 8. The antifungal activity of a range of DADS vapor exposure times was tested against Cg in avocados. All test pieces were wounded by removing the stem and infected by dispensing 1000 Cg spores suspended in 10 μL of water into the wound. The test groups consisted of avocados that were: infected and untreated; and exposed to the vapor of 3 mL of DADS in a Petri dish for 24 hours, 48 hours, and 72 hours. FIG. 10 quantifies the infection results. Test group exposed to DADS vapor at all exposure times reduced the incidence of Cg mold compared to the untreated test group. A 24 hour DADS exposure reduced the incidence of Cg mold by 8%. A 48 hour DADS exposure reduced the incidence of Cg mold by 25%. A 72 hour DADS exposure reduced the incidence of Cg mold by 57%.
Example 9. The antifungal activity of a range of AITC and carvacrol vapor exposure times was tested against Cg in avocados. To measure the effect of the various treatments on ripening, durometer shore was taken after 7 days of incubation at ambient temperature and high humidity. All samples were wounded by removing the stem and infected by dispensing 1000 Cg spores suspended in 10 μL of water in the wound. The test groups consisted of avocados that were: infected and left untreated on the benchtop; infected and left untreated under a fume hood; exposed to the vapor of 3 mL of AITC in a Petri dish for 24 hours, 48 hours, and 72 hours; and exposed to the vapor of 3 mL of carvacrol in a Petri dish for 72 hours. FIG. 11 quantifies the infection results. […] All exposure times to AITC vapor reduced the incidence of Cg mold compared to the untreated samples. A 24 hour AITC exposure reduced the incidence of Cg mold by 90%. A 48 hour AITC exposure reduced the incidence of Cg mold by 97%. A 72 hour AITC exposure reduced the incidence of Cg mold by 83%.
Example 10. The antifungal activity of a range of AITC vapor exposure times were tested against Cg in avocados. To measure the effect of the various treatments on ripening, durometer shore was taken after 6 days of incubation at ambient temperature and high humidity. All samples were wounded by removing the stem and infected by dispensing 1000 Cg spores suspended in 10 μL of water in each wound. The test groups consisted of avocados that were: infected and left untreated on the benchtop; infected and left untreated in a fume hood; exposed to the vapor of 3 mL of AITC in a Petri dish for 24 hours, 48 hours, and 72 hours. FIG. 13 quantifies the infection results. […] All exposure times to AITC vapor reduced the incidence of Cg mold compared to the untreated samples.
Example 21. The antifungal activity of avocados exposed to AITC vapor and prochloraz was tested against Cg in avocados. To measure the effect of the various treatments on ripening, durometer shore was taken after 5 days of incubation at ambient temperature (about 20° C. to about 25° C.) and high humidity (about 88% relative humidity to about 93% relative humidity). All samples were wounded by removing the stem and infected by dispensing 1000 Cg spores suspended in 10 μL of water in the wound. […]

For assay [2], the system named is Penicillium italicum (Pi). Briefly: Antifungal activity of vapor against Penicillium italicum (Pi) in wounded, infected mandarins. It counts as in vivo. Here is the method:
Example 2. The antifungal activity of allyl isothiocyanate (AITC) and DADS vapor was tested against Pd and Penicillium italicum (Pi) in mandarins. All samples were wounded by puncturing with a screw. Mandarins were infected by dispensing either 1000 Pd spores or 1000 Pi spores suspended in 10 μL into the wound. The test groups consisted of mandarins that were: uninfected and untreated; uninfected and treated by dipping in a solution of 1 g/L of imazalil; infected with Pd and untreated; infected with Pd and exposed to AITC; infected with Pd and exposed to DADS; infected with Pi and untreated; infected with Pi and exposed to AITC; and infected with Pi and exposed to DADS. Exposure to AITC or DADS consisted of exposing the mandarins for 72 hours to the vapor of 3 mL of the respective compound dispensed in a Petri dish. […] DADS vapor reduced the incidence of Pd mold by 85% and Pi mold by 30% compared to the respective untreated/infected test groups. […] Both AITC and DADS were effective at preventing fungal growth. The inhibition from AITC was approximately 100%, with some changes in visible appearance.

For `C=CCSSCC=C` [DADS, diallyl disulfide], the “reduction of the incidence of Cg mold compared to the untreated test group” value in assay [1] (Example 7, avocados) was 60%. Moreover, the “reduction of the incidence of Cg mold” value in assay [1] (Example 8, avocados, vapor of 3 mL, 24 hour exposure) stood at 8%; in assay [1] (Example 8, avocados, vapor of 3 mL, 48 hour exposure), 25%; in assay [1] (Example 8, avocados, vapor of 3 mL, 72 hour exposure), 57%. Further, the “reduction of the incidence of Pi mold compared to untreated/infected test group” value in assay [2] (Example 2, 72 hours vapor of 3 mL in a Petri dish) was 30%.

On to `C=CCN=C=S` [AITC, allyl isothiocyanate], for which, in assay [1] (Example 7, avocados), the “reduction of the incidence of Cg mold compared to the untreated test group” value is 97%. Besides, the “reduction of the incidence of Cg mold compared to the prochloraz treated test group” value in assay [1] (Example 7, avocados, vapor of 3 mL, prochloraz 0.1 g/L dip) was 70%. Also, the “reduction of the incidence of Cg mold” value turned out to be 90% in assay [1] (Example 9, avocados, vapor of 3 mL, 24 hour exposure); 97% in assay [1] (Example 9, avocados, vapor of 3 mL, 48 hour exposure); 83% in assay [1] (Example 9, avocados, vapor of 3 mL, 72 hour exposure); 81.5% in assay [1] (Example 10, avocados, vapor of 3 mL, 24 hour exposure); 93.5% in assay [1] (Example 10, avocados, vapor of 3 mL, 48 hour exposure); 86.5% in assay [1] (Example 10, avocados, vapor of 3 mL, 72 hour exposure). Also, the “reduction of the incidence of Cg mold” value in assay [1] (Example 21, printed as 24 hour exposure) was determined as 90%. For the same molecule, the “incidence of Cg mold” value is “reduced the incidence of Cg mold compared to the untreated samples and the prochloraz treated sample” in assay [1] (Example 21, 125 μL, 30 minutes); “reduced the incidence of Cg mold compared to the untreated samples, the samples treated with coating agent, and the prochloraz treated sample” in assay [1] (Example 22, AITC vapor 30 minutes). The “inhibition of fungal growth (Pi)” value in assay [2] (Example 2, 72 hours vapor of 3 mL) is on record as “approximately 100%”.
